Converted amounts (≈) assume the structure as drawn. Read-outs that look alike come from different tables or passages of the source.
Legend:
S. aureus USA300 = experiment: microbe, parasite or virus in culture; type: cell-based, Staphylococcus aureus
Procedure: (§1) The antibacterial activity of the compounds was tested against a panel of bacteria, including Gram-positive bacteria (S. aureus ATCC29213, S. aureus USA300, S. aureus LIM-2, NR-45881, S. aureus HIP13419, NR-46413, E. faecium E155, E. faecium E7314, E. faecium E980, E. faecalis E1246, E. faecalis E7406 and S. pneumonia 153). The antibacterial activity of the compounds was further tested against S. aureus NY-155, NR-46236, S. aureus HIP12864, NR-46074, S. aureus 880 (BR-VRSA), NR-49120, E. faecalis E1246, E. faecalis E7604, as well as some Gram-negative bacteria (Escherichia coli and Klebsiella pneumoniae). Minimum inhibitory concentrations (MICs) in μg/mL were performed according to the CLSI guidelines. From glycerol stocks, bacterial strains were cultured on blood agar plates and incubated at 37° C. for 18 h. A single colony was transferred to tryptic soy broth (TSB) with 0.002% polysorbate 80 (p80). For the Enterococcus, VISA and VRSA strains, the cultures were grown at 37° C. until the optical density of the suspension reached a level equivalent to the 0.5 McFarland standard. The bacterial suspensions were diluted in TSB with 0.002% p80 to reach a bacterial cell density of 10^6 CFU/mL. In case of the other (vancomycin-sensitive) S. aureus strains, the direct colony suspension method was used. For these strains, after transfer of the colonies to TSB with 0.002% p80, they were immediately diluted to 10^6 CFU/mL, instead of incubated prior to this dilution. In the case of S. pneumonia, direct colony suspension was used by immediately suspending multiple colonies from fresh blood agar plates in TSB+0.002% p80 to an OD600 of 0.5 and subsequent dilution to 10^6 CFU mL^−1 in TSB+0.002% p80+5% lysed horse blood. Antibiotic dilutions for this strains were also made in TSB+0.002% p80+5% lysed horse blood. Both agar and microplates containing S. pneumonia were incubated at 37° C. with 5% CO2 for 24 h with constant shaking (600 rpm). […] The cultures were grown to exponential phase (OD600=0.5) at 37° C. […] In polypropylene 96-well microtiter plates, test compounds were added in biological triplicates and serial diluted 2-fold by transfer and mixing from one well to the next to achieve a final volume of 50 μL per well. An equal volume of bacterial suspension (10^6 CFU mL^−1) was added to the wells. The plates were sealed with breathable membranes and incubated at 37° C. for 24 h with constant shaking (600 rpm). In polypropylene microtiter plates, 100 μL of the test compounds was added to the first row in biological triplicates, and 50 μL of media was added to the other wells. The compounds were subjected to serial dilution by transfer and mixing of 50 μL from one well to the next. Subsequently, 50 μL of bacterial suspension (10^6 CFU/mL) was added to the wells. The plates were sealed with breathable membranes and incubated at 37° C. for 24 h with constant shaking (600 rpm). Positive growth control consisted of wells with bacterial suspension and without antibiotic. Negative growth control consisted of solely media without bacterial suspension or antibiotic. The MICs were determined from the median of a minimum of triplicates.

[1] = system: S. aureus HIP13419, NR-46413; experiment: microbe, parasite or virus in culture; type: cell-based, Staphylococcus aureus
Procedure: as §1

E. faecalis E7406 = experiment: microbe, parasite or virus in culture; type: cell-based, Enterococcus faecalis
Procedure: as §1

E. faecalis E7604 = experiment: microbe, parasite or virus in culture; type: cell-based, Enterococcus faecalis
Procedure: as §1

E. faecalis E1246 = experiment: MIC assay; type: cell-based, Enterococcus faecalis
Procedure: as §1

E. faecium E155 = experiment: microbe, parasite or virus in culture; type: cell-based, Enterococcus faecium
Procedure: as §1

E. faecium E7314 = experiment: microbe, parasite or virus in culture; type: cell-based, Enterococcus faecium
Procedure: as §1

MRSA USA300 = experiment: MIC assay in the presence of sheep serum; type: cell-based, Staphylococcus aureus; conditions: MRSA USA300, TSB + 0.002% p80 + 50% sheep serum
Procedure: as §1
The activity of the compounds was further assessed against MRSA USA300 strain in the presence of sheep) serum in another MIC assay. The cultures that grew in the presence of serum used TSB+0.002% P80+50% sheep serum as growth media, as opposed to normal MICs done in only TSB+0.002% P80.

S. pneumoniae 153 = experiment: MIC assay; type: cell-based; conditions: S. pneumoniae 153, TSB+0.002% p80+5% lysed horse blood
Procedure: as §1

[2] = system: S. aureus 880 (BR-VRSA), NR-49120; experiment: MIC assay; type: cell-based, Staphylococcus aureus; conditions: S. aureus 880, NR-49120 VRSA
Procedure: as §1

[3] = system: S. aureus HIP12864, NR-46074; experiment: MIC assay; type: cell-based, Staphylococcus aureus; conditions: S. aureus HIP12864, NR-46074 VISA
Procedure: as §1

S. aureus ATCC29213 = experiment: MIC assay; type: cell-based, Staphylococcus aureus
Procedure: as §1

[4] = system: S. aureus NY-155, NR-46236; experiment: MIC assay; type: cell-based, Staphylococcus aureus; conditions: S. aureus NY-155, NR-46236 MRSA
Procedure: as §1

[5] = system: S. aureus LIM-2, NR-25881; experiment: MIC assay; type: cell-based, Staphylococcus aureus; conditions: S. aureus LIM-2, NR-25881 VISA
Procedure: as §1

E. faecium E980 = experiment: MIC assay; type: cell-based, Enterococcus faecium
Procedure: as §1

[6] = S. aureus HIP13419, NR-46413 VRSA
[7] = E. faecalis E1246 VRE (VanA), Table 7
[8] = E. faecalis E1246 VRE (vanA), Table 9
[9] = Staphylococcus aureus, read-out: MIC

SMILES	MIC (S. aureus USA300; MRSA USA300, TSB + 0.002% p80) [µg/mL]	MIC (S. aureus USA300; S. aureus USA300 MRSA) [µg/mL]	MIC [1, 6] [µg/mL]	MIC (E. faecalis E7406; E. faecalis E7406 VRE (VanB)) [µg/mL]	MIC (E. faecalis E7604; E. faecalis E7604 VRE (vanB)) [µg/mL]	MIC (E. faecalis E1246; [7]) [µg/mL]	MIC (E. faecalis E1246; [8]) [µg/mL]	MIC (E. faecium E155; E. faecium E155 VRE (VanA)) [µg/mL]	MIC (E. faecium E7314; E. faecium E7314 VRE (VanB)) [µg/mL]	MIC (MRSA USA300) [µg/mL]	MIC (S. pneumoniae 153) [µg/mL]	MIC [2] [µg/mL]	MIC [3] [µg/mL]	MIC (S. aureus ATCC29213; S. aureus ATCC29213 MSSA) [µg/mL]	MIC [4] [µg/mL]	MIC [5] [µg/mL]	MIC (E. faecium E980; E. faecium E980 VSE) [µg/mL]	further results
CCCCCCCCCCN(CCCCCCCCCC)C(N)=Nc1ccc(CN[C@@]2(C)C[C@H](O[C@H]3[C@H](Oc4c5cc6cc4Oc4ccc(cc4Cl)[C@@H](O)[C@@H](NC(=O)[C@@H](CC(C)C)NC)C(=O)N[C@@H](CC(N)=O)C(=O)N[C@H]6C(=O)N[C@H]4C(=O)N[C@H](C(=O)N[C@H](C(=O)O)c6cc(O)cc(O)c6-c6cc4ccc6O)[C@H](O)c4ccc(c(Cl)c4)O5)O[C@H](CO)[C@@H](O)[C@@H]3O)O[C@@H](C)[C@H]2O)cc1 [Compound 13]	16	16 (≈ 8.52 µM)	8 (≈ 4.26 µM)	4 (≈ 2.13 µM)	4 (≈ 2.13 µM)	32 (≈ 17 µM)	32 (≈ 17 µM)	8 (≈ 4.26 µM)	4 (≈ 2.13 µM)	64	2 (≈ 1.07 µM)	8 (≈ 4.26 µM)	16 (≈ 8.52 µM)	16 (≈ 8.52 µM)	16 (≈ 8.52 µM)	32 (≈ 17 µM)	4 (≈ 2.13 µM)	
CN[C@H](CC(C)C)C(=O)N[C@H]1C(=O)N[C@@H](CC(N)=O)C(=O)N[C@H]2C(=O)N[C@H]3C(=O)N[C@H](C(=O)N[C@H](C(=O)O)c4cc(O)cc(O)c4-c4cc3ccc4O)[C@H](O)c3ccc(c(Cl)c3)Oc3cc2cc(c3O[C@@H]2O[C@H](CO)[C@@H](O)[C@H](O)[C@H]2O[C@H]2C[C@](C)(NCc3ccc(N=C(N)NC/C=C(\C)CC/C=C(\C)CCC=C(C)C)cc3)[C@H](O)[C@H](C)O2)Oc2ccc(cc2Cl)[C@H]1O [Compound 15]	0.063	0.0625 (≈ 0.0347 µM)	0.125 (≈ 0.0694 µM)	0.03125 (≈ 0.0174 µM)	0.031 (≈ 0.0172 µM)	1 (≈ 0.555 µM)	1 (≈ 0.555 µM)	0.125 (≈ 0.0694 µM)	0.01562 (≈ 0.00867 µM)	1	≤0.008	0.5 (≈ 0.278 µM)	0.125 (≈ 0.0694 µM)	0.03125 (≈ 0.0174 µM)	0.125 (≈ 0.0694 µM)	0.125 (≈ 0.0694 µM)	0.03125 (≈ 0.0174 µM)	
CN[C@H](CC(C)C)C(=O)N[C@H]1C(=O)N[C@@H](CC(N)=O)C(=O)N[C@H]2C(=O)N[C@H]3C(=O)N[C@H](C(=O)N[C@H](C(=O)O)c4cc(O)cc(O)c4-c4cc3ccc4O)[C@H](O)c3ccc(c(Cl)c3)Oc3cc2cc(c3O[C@@H]2O[C@H](CO)[C@@H](O)[C@H](O)[C@H]2O[C@H]2C[C@](C)(NCc3ccc(N=C(N)NC45CC6CC(CC(C6)C4)C5)cc3)[C@H](O)[C@H](C)O2)Oc2ccc(cc2Cl)[C@H]1O [Compound 17]	0.031	0.031 (≈ 0.0179 µM)	8 (≈ 4.62 µM)	0.125 (≈ 0.0722 µM)	0.125 (≈ 0.0722 µM)	16 (≈ 9.24 µM)	16 (≈ 9.24 µM)	8 (≈ 4.62 µM)	0.016 (≈ 0.00924 µM)	0.125	0.016 (≈ 0.00924 µM)	8 (≈ 4.62 µM)	≤0.016	0.016 (≈ 0.00924 µM)	0.031 (≈ 0.0179 µM)	0.125 (≈ 0.0722 µM)	≤0.008	
CN[C@H](CC(C)C)C(=O)N[C@H]1C(=O)N[C@@H](CC(N)=O)C(=O)N[C@H]2C(=O)N[C@H]3C(=O)N[C@H](C(=O)N[C@H](C(=O)O)c4cc(O)cc(O)c4-c4cc3ccc4O)[C@H](O)c3ccc(c(Cl)c3)Oc3cc2cc(c3O[C@@H]2O[C@H](CO)[C@@H](O)[C@H](O)[C@H]2O[C@H]2C[C@](C)(NCc3ccc(N=C(N)NCC45CC6CC(CC(C6)C4)C5)cc3)[C@H](O)[C@H](C)O2)Oc2ccc(cc2Cl)[C@H]1O [Compound 18]	≤0.008	≤0.008	2 (≈ 1.15 µM)	≤0.008	≤0.008	16 (≈ 9.17 µM)	16 (≈ 9.17 µM)	2 (≈ 1.15 µM)	≤0.008	0.031	≤0.008	2 (≈ 1.15 µM)	≤0.016	≤0.008	≤0.008	0.016 (≈ 0.00917 µM)	≤0.008	
CN[C@H]1C(=O)N[C@@H]2Cc3ccc(cc3)Oc3cc4cc(c3O[C@@H]3O[C@H](C(=O)O)[C@@H](O)[C@H](O)[C@H]3NC(=O)CCCCCCCCC(C)C)Oc3ccc(cc3Cl)[C@@H](O)[C@@H]3NC(=O)[C@H](NC(=O)[C@@H]4NC(=O)[C@@H](NC2=O)c2cc(cc(O)c2Cl)Oc2cc1ccc2O)c1ccc(O)c(c1)-c1c(O[C@H]2O[C@H](CO)[C@@H](O)[C@H](O)[C@@H]2O)cc(O)cc1[C@@H](C(=O)NCCCN(C)C)NC3=O [Dalbavancin, reference compound]							>128											MIC (S. aureus USA300; Staphylococcus aureus, MRSA / USA300): 0.25 µg/mL (≈ 0.138 µM); MIC ([1]; Staphylococcus aureus, VRSA): 16 µg/mL (≈ 8.81 µM); MIC (E. faecalis E7406; Enterococcus faecalis, VRE): 0.0312 µg/mL (≈ 0.0172 µM); MIC (E. faecalis E7604; Enterococcus faecalis, VRE): 0.031 µg/mL (≈ 0.0171 µM); MIC (E. faecalis E1246; Enterococcus faecalis, E. faecalis E1246 VRE (VanA), Table 7, read-out: MIC): > 128 µg/mL; MIC (E. faecium E155; Enterococcus faecium, VRE): 128 µg/mL (≈ 70.5 µM); MIC (E. faecium E7314; Enterococcus faecium, VRE): 0.0156 µg/mL (≈ 0.0086 µM); MIC (MRSA USA300; Staphylococcus aureus, 24 h, read-out: MIC): 2 µg/mL; MIC (S. pneumoniae 153; Streptococcus pneumoniae, read-out: MIC): ≤ 0.008 µg/mL; MIC [2, 9]: 2 µg/mL (≈ 1.1 µM); MIC [3, 9]: 0.5 µg/mL (≈ 0.275 µM); MIC (S. aureus ATCC29213; Staphylococcus aureus, ATCC 29213 / MSSA): 0.25 µg/mL (≈ 0.138 µM); MIC [4, 9]: ≤ 0.008 µg/mL; MIC [5, 9]: 1 µg/mL (≈ 0.55 µM); MIC (E. faecium E980; Enterococcus faecium, E980): 0.0625 µg/mL (≈ 0.0344 µM)

— patent US20230174584A1, “Antibiotic Compounds” (priority 2019, published 2023)
